Assay results as given in PMC9774241, “Associating Biological Activity and Predicted Structure of Antimicrobial Peptides from Amphibians and Insects” (Antibiotics, 2022).
Converted amounts (≈) assume the structure as drawn. Residues, ends and D or L forms follow the SMILES beside them.

Columns and labels:
Assay type in all cases: cell-based
Settings in all cases: broth microdilution in MHB, peptide 128 down to 0.5 µg/mL, 20–24 h at 37 °C, no visible growth; range of three independent experiments
[1] = system: Escherichia coli ATCC 25922
Description: (§1) Bacteria were grown overnight at 37 °C in Mueller-Hinton Broth (MHB; Sigma-Aldrich, St. Louis. MO, USA) in a shaking incubator and aliquoted into cryovials with a 50% glycerol solution in a 1:1 ratio. No additives were added to the MHB during the growth of bacterial isolates. Glycerol stocks were stored at −80 °C.
(§2) The antimicrobial activity of the putative AMPs was determined by a broth microdilution assay as described by the Clinical and Laboratory Standards Institute, with the published adaptations for testing of cationic peptides. Escherichia coli 25922 and Staphylococcus aureus 29213 isolates were purchased from the American Type Culture Collection (ATCC; Manassas, VA, USA). A human clinical isolate of Salmonella enterica serovar Enteritidis was provided by the BC Centre for Disease Control. Bacteria from stocks stored at −80 °C were streaked onto nonselective Columbia blood agar with 5% sheep blood (Oxoid) and incubated overnight at 37 °C. Next, 2–4 colonies were streaked onto a new agar plate to ensure uniform health of colonies used in the broth microdilution assay. Isolated colonies were suspended in MHB and the optical density was measured with a spectrophotometer to create an initial inoculum concentration of approximately 1 × 10^8 cfu/mL. The inoculum was diluted 1:250 to a final concentration of 2–8 × 10^5 cfu/mL, which was confirmed by performing a Total Viability Count (TVC). The TVC consisted of plating a 1:1000 dilution of the final inoculum on nonselective media and was also used to confirm the health and purity of the inoculum in each trial.
(§3) Lyophilized 80 µg peptide aliquots synthesized by GenScript (Piscataway, NJ, USA) were resuspended to 1.28 mg/mL with UltraPure water (Thermo Fisher Scientific, Waltham, MA, USA) and serially diluted in polypropylene 96-well microtiter plates (Greiner Bio-One #650261, Kremsmünster, Austria) from 128 down to 0.5 µg/mL. Two columns per plate were reserved for growth and sterility controls. Inoculum was added to the wells containing the peptide and the growth control. Plates were incubated for 20–24 h at 37 °C. The minimum inhibitory concentration (MIC) was determined as the lowest peptide concentration where there was no visible bacterial growth.

[2] = system: Salmonella enterica serovar Enteritidis (human clinical isolate)
Description: as §1, §2, §3

[3] = system: Staphylococcus aureus ATCC 29213
Description: as §1, §2, §3

| Structure (SMILES) | MIC, E. coli ATCC 25922 [1] [µg/mL] | MIC, Salmonella Enteritidis [2] [µg/mL] | MIC, S. aureus ATCC 29213 [3] [µg/mL] |
| --- | --- | --- | --- |
| CC[C@H](C)[C@H](NC(=O)[C@H](CCCCN)NC(=O)[C@H](CS)NC(=O)[C@H](Cc1ccccc1)NC(=O)[C@H](CCCCN)NC(=O)[C@H](CCCNC(=N)N)NC(=O)[C@H](CO)NC(=O)[C@H](Cc1ccc(O)cc1)NC(=O)CNC(=O)[C@H](CS)NC(=O)[C@@H]1CCCN1C(=O)[C@H](C)NC(=O)[C@@H](NC(=O)[C@H](C)NC(=O)[C@H](Cc1ccccc1)NC(=O)[C@H](Cc1ccccc1)NC(=O)[C@H](Cc1ccccc1)NC(=O)[C@H](CCCNC(=N)N)NC(=O)[C@@H](N)CCCNC(=N)N)[C@@H](C)O)C(=O)N[C@H](C(=O)N[C@@H](CCCNC(=N)N)C(=O)N[C@@H](CCCNC(=N)N)C(=O)N[C@@H](CCCCN)C(=O)N[C@@H](CCCNC(=N)N)C(=O)O)[C@@H](C)O [CaCa4] (H-RRFFFATAPCGYSRKFCKITRRKR-OH) | 16 to 32 | 32 to 64 | > 128 |
| CC[C@H](C)[C@H](NC(=O)CNC(=O)[C@H](CO)NC(=O)[C@H](CC(C)C)NC(=O)[C@H](CC(C)C)NC(=O)CN)C(=O)N[C@@H](CC(C)C)C(=O)NCC(=O)N[C@@H](C)C(=O)NCC(=O)N[C@@H](CCCCN)C(=O)N[C@@H](CCCCN)C(=O)N[C@H](C(=O)N[C@H](C(=O)N[C@@H](CS)C(=O)NCC(=O)N[C@@H](Cc1ccccc1)C(=O)N[C@@H](CO)C(=O)NCC(=O)N[C@@H](CC(C)C)C(=O)N[C@@H](CS)C(=O)O)C(C)C)[C@@H](C)CC [OdMa1] (H-GLLSGILGAGKKIVCGFSGLC-OH; N-terminus and C-terminus assumed) | 8 to 16 | 128 (≈ 64.2 µM) | 64 (≈ 32.1 µM) |
| CC[C@H](C)[C@H](NC(=O)[C@H](CCCCN)NC(=O)[C@H](CCCCN)NC(=O)CNC(=O)[C@H](C)NC(=O)CNC(=O)[C@H](CC(C)C)NC(=O)[C@H](CC(C)C)NC(=O)CNC(=O)[C@H](CO)NC(=O)[C@H](CC(C)C)NC(=O)[C@H](CC(C)C)NC(=O)CN)C(=O)N[C@H](C(=O)N[C@@H](CS)C(=O)NCC(=O)N[C@@H](CC(C)C)C(=O)N[C@@H](CO)C(=O)NCC(=O)N[C@@H](CCSC)C(=O)N[C@@H](CS)C(=O)O)C(C)C [OdMa3] (H-GLLSGLLGAGKKIVCGLSGMC-OH; N-terminus and C-terminus assumed) | 8 to 16 | 64 (≈ 32.4 µM) | 32 (≈ 16.2 µM) |
| CC[C@H](C)[C@H](NC(=O)CN)C(=O)N[C@@H](CC(C)C)C(=O)N[C@@H](CO)C(=O)NCC(=O)N[C@@H](CC(C)C)C(=O)N[C@@H](CC(C)C)C(=O)NCC(=O)N[C@@H](C)C(=O)NCC(=O)N[C@@H](CCCCN)C(=O)N[C@@H](CCCCN)C(=O)N[C@H](C(=O)N[C@H](C(=O)N[C@@H](CS)C(=O)NCC(=O)N[C@@H](CC(C)C)C(=O)N[C@@H](CO)C(=O)NCC(=O)N[C@@H](CC(C)C)C(=O)N[C@@H](CS)C(=O)O)C(C)C)[C@@H](C)CC [OdMa5] (H-GILSGLLGAGKKIVCGLSGLC-OH; N-terminus and C-terminus assumed) | 8 to 16 | 64 to 128 | 8 to 16 |
| CC[C@H](C)[C@H](NC(=O)[C@H](CCCCN)NC(=O)[C@H](CCCCN)NC(=O)CNC(=O)[C@@H](NC(=O)CNC(=O)[C@H](CC(C)C)NC(=O)[C@@H](NC(=O)CNC(=O)[C@H](CO)NC(=O)[C@H](CC(C)C)NC(=O)[C@H](CC(C)C)NC(=O)CN)C(C)C)C(C)C)C(=O)N[C@H](C(=O)N[C@@H](CS)C(=O)NCC(=O)N[C@@H](CC(C)C)C(=O)N[C@@H](CO)C(=O)NCC(=O)N[C@@H](CC(C)C)C(=O)N[C@@H](CS)C(=O)O)C(C)C [OdMa6] (H-GLLSGVLGVGKKIVCGLSGLC-OH; N-terminus and C-terminus assumed) | 8 to 16 | 128 (≈ 64.9 µM) | 16 to 32 |
| CC(C)C[C@H](NC(=O)CNC(=O)[C@H](CO)NC(=O)[C@H](CC(C)C)NC(=O)CNC(=O)[C@H](CS)NC(=O)[C@H](CC(C)C)NC(=O)[C@@H](NC(=O)[C@H](CCCCN)NC(=O)[C@H](CCCCN)NC(=O)CNC(=O)[C@@H](NC(=O)CNC(=O)[C@H](CC(C)C)NC(=O)[C@@H](NC(=O)CNC(=O)[C@H](CO)NC(=O)[C@H](CC(C)C)NC(=O)[C@H](CC(C)C)NC(=O)CN)C(C)C)C(C)C)C(C)C)C(=O)N[C@@H](CS)C(=O)O [OdMa7] (H-GLLSGVLGVGKKVLCGLSGLC-OH; N-terminus and C-terminus assumed) | 8 to 16 | 128 (≈ 64.9 µM) | 16 to 32 |
| CC[C@H](C)[C@H](NC(=O)CNC(=O)[C@H](CO)NC(=O)[C@@H](NC(=O)[C@H](CC(C)C)NC(=O)CN)[C@@H](C)CC)C(=O)N[C@@H](CC(C)C)C(=O)NCC(=O)N[C@@H](C)C(=O)NCC(=O)N[C@@H](CCCCN)C(=O)N[C@@H](CCCCN)C(=O)N[C@H](C(=O)N[C@@H](CC(C)C)C(=O)N[C@@H](CS)C(=O)NCC(=O)N[C@@H](CC(C)C)C(=O)N[C@@H](CO)C(=O)NCC(=O)N[C@@H](CC(C)C)C(=O)N[C@@H](CS)C(=O)O)C(C)C [OdMa10] (H-GLISGILGAGKKVLCGLSGLC-OH; N-terminus and C-terminus assumed) | 16 to 32 | > 128 | 64 to 128 |
| CC[C@H](C)[C@H](NC(=O)[C@H](CCCCN)NC(=O)[C@H](CS)NC(=O)[C@H](CCCCN)NC(=O)[C@H](CC(C)C)NC(=O)[C@H](CC(N)=O)NC(=O)[C@H](Cc1ccc(O)cc1)NC(=O)[C@H](CC(C)C)NC(=O)[C@H](CC(C)C)NC(=O)[C@@H](NC(=O)[C@@H](NC(=O)[C@H](C)NC(=O)[C@@H](NC(=O)[C@H](CC(N)=O)NC(=O)[C@H](CCCCN)NC(=O)[C@H](C)NC(=O)[C@@H](NC(=O)[C@H](CC(N)=O)NC(=O)[C@H](CCCCN)NC(=O)[C@H](C)NC(=O)[C@@H](NC(=O)[C@H](CC(=O)O)NC(=O)[C@H](CCSC)NC(=O)[C@H](Cc1ccccc1)NC(=O)CN)[C@@H](C)O)C(C)C)C(C)C)C(C)C)[C@@H](C)O)C(=O)N[C@H](C(=O)N[C@@H](CCCCN)C(=O)N[C@@H](C)C(=O)N[C@@H](CS)C(=O)O)[C@@H](C)O [OdMa12] (H-GFMDTAKNVAKNVAVTLLYNLKCKITKAC-OH; N-terminus and C-terminus assumed) | 4 (≈ 1.27 µM) | 64 (≈ 20.3 µM) | 64 to 128 |
| CC[C@H](C)[C@H](NC(=O)CN)C(=O)N[C@@H](CC(C)C)C(=O)N[C@@H](CO)C(=O)NCC(=O)N[C@@H](CC(C)C)C(=O)N[C@@H](CC(C)C)C(=O)NCC(=O)N[C@@H](C)C(=O)NCC(=O)N[C@@H](CCCCN)C(=O)N[C@@H](CCCCN)C(=O)N[C@@H](CC(C)C)C(=O)N[C@@H](C)C(=O)N[C@@H](CS)C(=O)NCC(=O)N[C@@H](CC(C)C)C(=O)N[C@H](C(=O)NCC(=O)N[C@@H](CC(C)C)C(=O)N[C@@H](CS)C(=O)O)[C@@H](C)CC [OdTo1] (H-GILSGLLGAGKKLACGLIGLC-OH; N-terminus and C-terminus assumed) | 8 (≈ 4.09 µM) | 32 to 64 | 8 to 16 |
| CC[C@H](C)[C@H](NC(=O)CN)C(=O)N[C@@H](Cc1ccccc1)C(=O)NCC(=O)NCC(=O)N[C@@H](Cc1c[nH]cn1)C(=O)N[C@@H](CC(C)C)C(=O)N[C@@H](CCCCN)C(=O)N[C@H](C(=O)NCC(=O)N[C@@H](CCCCN)C(=O)N[C@@H](CCCCN)C(=O)N[C@H](C(=O)N[C@@H](C)C(=O)N[C@@H](CS)C(=O)NCC(=O)N[C@@H](CC(C)C)C(=O)N[C@@H](CO)C(=O)NCC(=O)N[C@@H](CC(C)C)C(=O)N[C@@H](CS)C(=O)O)[C@@H](C)CC)C(C)C [OdTo2] (H-GIFGGHLKVGKKIACGLSGLC-OH; N-terminus and C-terminus assumed) | 32 (≈ 15.5 µM) | > 128 | > 128 |
